Laboratory results published in ChEMBL document CHEMBL1909046, “DrugMatrix in vitro pharmacology data”.

biological target: T1, Angiotensin-converting enzyme (Oryctolagus cuniculus, UniProt P12822); type: tissue-based, Lung; settings: not given;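 note: enzymatic inhibition of angiotensin-converting enzyme measured with FAPGG as the substrate; in other assays of this panel Not Active means under 50% inhibition at 10 µM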
T1 sequence (P12822 whole entry): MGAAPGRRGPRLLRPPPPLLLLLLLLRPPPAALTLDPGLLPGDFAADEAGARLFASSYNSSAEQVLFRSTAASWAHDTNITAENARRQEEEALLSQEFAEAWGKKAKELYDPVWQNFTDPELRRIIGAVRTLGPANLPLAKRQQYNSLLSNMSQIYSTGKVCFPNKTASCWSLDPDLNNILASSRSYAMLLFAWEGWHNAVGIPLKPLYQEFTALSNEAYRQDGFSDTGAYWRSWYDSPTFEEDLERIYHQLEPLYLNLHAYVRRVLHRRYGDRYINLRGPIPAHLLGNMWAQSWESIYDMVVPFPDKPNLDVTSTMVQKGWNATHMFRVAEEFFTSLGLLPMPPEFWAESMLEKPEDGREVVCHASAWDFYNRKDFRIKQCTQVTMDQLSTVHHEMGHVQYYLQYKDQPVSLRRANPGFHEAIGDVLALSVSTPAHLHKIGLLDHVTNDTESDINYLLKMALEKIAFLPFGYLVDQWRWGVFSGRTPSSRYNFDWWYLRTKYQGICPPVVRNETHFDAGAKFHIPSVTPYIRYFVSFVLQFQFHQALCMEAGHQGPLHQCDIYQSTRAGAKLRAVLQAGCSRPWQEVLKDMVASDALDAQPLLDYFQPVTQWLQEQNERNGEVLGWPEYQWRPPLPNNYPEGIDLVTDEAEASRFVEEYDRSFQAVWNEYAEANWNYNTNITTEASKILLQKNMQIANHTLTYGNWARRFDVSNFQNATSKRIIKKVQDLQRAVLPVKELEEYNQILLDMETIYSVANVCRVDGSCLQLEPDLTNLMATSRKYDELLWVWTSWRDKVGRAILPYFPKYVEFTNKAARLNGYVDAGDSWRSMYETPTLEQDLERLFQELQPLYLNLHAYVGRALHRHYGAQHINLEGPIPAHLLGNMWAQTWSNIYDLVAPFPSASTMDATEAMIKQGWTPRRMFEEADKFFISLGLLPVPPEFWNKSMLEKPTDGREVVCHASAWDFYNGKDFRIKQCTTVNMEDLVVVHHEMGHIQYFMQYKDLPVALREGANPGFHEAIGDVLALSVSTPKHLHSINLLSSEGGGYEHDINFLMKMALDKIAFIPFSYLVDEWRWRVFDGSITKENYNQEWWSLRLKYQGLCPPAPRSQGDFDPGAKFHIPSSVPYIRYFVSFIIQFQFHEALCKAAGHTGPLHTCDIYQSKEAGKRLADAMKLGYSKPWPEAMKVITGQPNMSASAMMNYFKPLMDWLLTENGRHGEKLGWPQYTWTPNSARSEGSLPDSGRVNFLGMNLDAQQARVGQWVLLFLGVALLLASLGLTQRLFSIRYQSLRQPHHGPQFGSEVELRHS

Compound | IC50
C[C@]12CC[C@@H]3c4ccc(O)cc4CC[C@H]3[C@@H]1CCC2=O [ESTRONE] | Not Active
NC1=NC(=O)C(c2ccccc2)O1 (centres undefined) [PEMOLINE] | Not Active
CN(C)c1nc(N(C)C)nc(N(C)C)n1 [ALTRETAMINE] | Not Active
CCn1cc(C(=O)O)c(=O)c2cc(F)c(N3CCNCC3)cc21 [NORFLOXACIN] | Not Active
CCCN1C[C@H](CSC)C[C@@H]2c3cccc4[nH]cc(c34)C[C@H]21 [PERGOLIDE] | Not Active
Clc1cccc(Cl)c1NC1=NCCN1 [CLONIDINE] | Not Active
C=C(C)C1(O)OC(=O)C=C1OC (centres undefined) [PENICILLIC ACID] | Not Active

tested on: not listed separately; test: DRUGMATRIX: Serotonin (5-Hydroxytryptamine) 5-HT3 radioligand binding (ligand: [3H] GR-65630); type: cell membranes, Membrane; settings: hek293; Not Active = under 50% inhibition at 10 µM

Compound | IC50 | Ki
C[C@]12CC[C@@H]3c4ccc(O)cc4CC[C@H]3[C@@H]1CCC2=O [ESTRONE] | Not Active | Not Active
NC1=NC(=O)C(c2ccccc2)O1 (centres undefined) [PEMOLINE] | Not Active | Not Active
CN(C)c1nc(N(C)C)nc(N(C)C)n1 [ALTRETAMINE] | Not Active | Not Active
CCn1cc(C(=O)O)c(=O)c2cc(F)c(N3CCNCC3)cc21 [NORFLOXACIN] | Not Active | Not Active
CCCN1C[C@H](CSC)C[C@@H]2c3cccc4[nH]cc(c34)C[C@H]21 [PERGOLIDE] | Not Active | Not Active
Clc1cccc(Cl)c1NC1=NCCN1 [CLONIDINE] | Not Active | Not Active
C=C(C)C1(O)OC(=O)C=C1OC (centres undefined) [PENICILLIC ACID] | Not Active | Not Active

biological target: Carbonic anhydrase 2 (Homo sapiens, UniProt P00918); test: DRUGMATRIX: Carbonic Anhydrase II enzyme inhibition (substrate: 4-Nitrophenyl acetate (4-NPA)); type: tissue-based, Erythrocyte; settings: erythrocyte; Not Active = under 50% inhibition at 10 µM

Compound | IC50
C[C@]12CC[C@@H]3c4ccc(O)cc4CC[C@H]3[C@@H]1CCC2=O [ESTRONE] | Not Active
NC1=NC(=O)C(c2ccccc2)O1 (centres undefined) [PEMOLINE] | Not Active
CN(C)c1nc(N(C)C)nc(N(C)C)n1 [ALTRETAMINE] | Not Active
CCn1cc(C(=O)O)c(=O)c2cc(F)c(N3CCNCC3)cc21 [NORFLOXACIN] | Not Active
CCCN1C[C@H](CSC)C[C@@H]2c3cccc4[nH]cc(c34)C[C@H]21 [PERGOLIDE] | Not Active
Clc1cccc(Cl)c1NC1=NCCN1 [CLONIDINE] | Not Active
C=C(C)C1(O)OC(=O)C=C1OC (centres undefined) [PENICILLIC ACID] | Not Active

biological target: T2, Muscarinic acetylcholine receptor M4 (Homo sapiens, UniProt P08173); type: cell membranes, CHO-K1, Membrane; settings: cho-k1; note: in other assays of this panel Not Active means under 50% inhibition at 10 µM
T2 sequence (P08173 whole entry): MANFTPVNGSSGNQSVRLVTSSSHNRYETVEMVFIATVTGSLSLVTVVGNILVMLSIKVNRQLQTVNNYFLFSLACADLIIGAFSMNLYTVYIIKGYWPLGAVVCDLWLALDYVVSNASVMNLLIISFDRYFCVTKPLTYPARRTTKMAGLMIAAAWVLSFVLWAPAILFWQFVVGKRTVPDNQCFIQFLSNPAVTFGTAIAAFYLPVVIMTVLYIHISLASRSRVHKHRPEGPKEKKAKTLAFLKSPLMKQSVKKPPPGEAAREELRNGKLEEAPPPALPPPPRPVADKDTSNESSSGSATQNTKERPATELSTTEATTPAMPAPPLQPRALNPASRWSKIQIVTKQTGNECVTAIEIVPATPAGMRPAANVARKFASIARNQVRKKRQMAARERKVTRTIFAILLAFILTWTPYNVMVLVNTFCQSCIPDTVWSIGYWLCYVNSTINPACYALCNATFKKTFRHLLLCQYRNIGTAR

Compound | IC50
C[C@]12CC[C@@H]3c4ccc(O)cc4CC[C@H]3[C@@H]1CCC2=O [ESTRONE] | Not Active
NC1=NC(=O)C(c2ccccc2)O1 (centres undefined) [PEMOLINE] | Not Active
CN(C)c1nc(N(C)C)nc(N(C)C)n1 [ALTRETAMINE] | Not Active
CCn1cc(C(=O)O)c(=O)c2cc(F)c(N3CCNCC3)cc21 [NORFLOXACIN] | Not Active
CCCN1C[C@H](CSC)C[C@@H]2c3cccc4[nH]cc(c34)C[C@H]21 [PERGOLIDE] | Not Active
Clc1cccc(Cl)c1NC1=NCCN1 [CLONIDINE] | Not Active
C=C(C)C1(O)OC(=O)C=C1OC (centres undefined) [PENICILLIC ACID] | Not Active

biological target: 5-hydroxytryptamine receptor 6 (Homo sapiens, UniProt P50406); type: cell membranes, HeLa, Membrane; settings: hela; note: in other assays of this panel Not Active means under 50% inhibition at 10 µM
Sequence (P50406 whole entry): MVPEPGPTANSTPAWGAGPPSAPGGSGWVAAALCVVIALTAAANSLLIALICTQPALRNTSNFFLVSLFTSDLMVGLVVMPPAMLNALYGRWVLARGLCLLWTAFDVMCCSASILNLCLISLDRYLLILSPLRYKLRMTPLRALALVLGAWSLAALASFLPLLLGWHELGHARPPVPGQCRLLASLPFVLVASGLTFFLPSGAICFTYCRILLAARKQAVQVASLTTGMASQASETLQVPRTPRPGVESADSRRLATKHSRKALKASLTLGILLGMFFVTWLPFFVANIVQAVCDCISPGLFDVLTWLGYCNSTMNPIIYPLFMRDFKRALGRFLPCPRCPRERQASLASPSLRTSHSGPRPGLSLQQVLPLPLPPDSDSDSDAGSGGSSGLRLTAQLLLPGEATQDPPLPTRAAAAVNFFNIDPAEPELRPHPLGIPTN

Compound | IC50
C[C@]12CC[C@@H]3c4ccc(O)cc4CC[C@H]3[C@@H]1CCC2=O [ESTRONE] | Not Active
NC1=NC(=O)C(c2ccccc2)O1 (centres undefined) [PEMOLINE] | Not Active
CN(C)c1nc(N(C)C)nc(N(C)C)n1 [ALTRETAMINE] | Not Active
CCn1cc(C(=O)O)c(=O)c2cc(F)c(N3CCNCC3)cc21 [NORFLOXACIN] | Not Active
Clc1cccc(Cl)c1NC1=NCCN1 [CLONIDINE] | Not Active
C=C(C)C1(O)OC(=O)C=C1OC (centres undefined) [PENICILLIC ACID] | Not Active

same assay, conditions: read-out: IC50

Compound | IC50
CCCN1C[C@H](CSC)C[C@@H]2c3cccc4[nH]cc(c34)C[C@H]21 [PERGOLIDE] | 0.039 µM

same assay, conditions: read-out: Ki

Compound | Ki
CCCN1C[C@H](CSC)C[C@@H]2c3cccc4[nH]cc(c34)C[C@H]21 [PERGOLIDE] | 0.018 µM

biological target: T3, Vasoactive intestinal polypeptide receptor 1 (Homo sapiens, UniProt P32241); type: cell membranes, Membrane; settings: ht-29; note: in other assays of this panel Not Active means under 50% inhibition at 10 µM
T3 sequence (P32241 whole entry): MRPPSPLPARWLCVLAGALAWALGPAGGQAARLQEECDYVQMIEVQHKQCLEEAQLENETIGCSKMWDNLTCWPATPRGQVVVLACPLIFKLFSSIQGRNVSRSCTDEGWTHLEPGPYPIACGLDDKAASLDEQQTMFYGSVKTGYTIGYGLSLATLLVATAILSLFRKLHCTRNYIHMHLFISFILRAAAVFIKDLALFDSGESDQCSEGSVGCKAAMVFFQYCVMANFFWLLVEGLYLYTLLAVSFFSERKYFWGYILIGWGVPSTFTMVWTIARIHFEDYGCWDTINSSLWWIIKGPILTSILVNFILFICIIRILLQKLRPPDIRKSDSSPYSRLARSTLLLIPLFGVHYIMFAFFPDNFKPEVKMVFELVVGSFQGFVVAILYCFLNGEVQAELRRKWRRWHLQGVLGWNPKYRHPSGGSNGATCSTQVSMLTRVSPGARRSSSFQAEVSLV

Compound | IC50
C[C@]12CC[C@@H]3c4ccc(O)cc4CC[C@H]3[C@@H]1CCC2=O [ESTRONE] | Not Active
NC1=NC(=O)C(c2ccccc2)O1 (centres undefined) [PEMOLINE] | Not Active
CN(C)c1nc(N(C)C)nc(N(C)C)n1 [ALTRETAMINE] | Not Active
CCn1cc(C(=O)O)c(=O)c2cc(F)c(N3CCNCC3)cc21 [NORFLOXACIN] | Not Active
CCCN1C[C@H](CSC)C[C@@H]2c3cccc4[nH]cc(c34)C[C@H]21 [PERGOLIDE] | Not Active
Clc1cccc(Cl)c1NC1=NCCN1 [CLONIDINE] | Not Active
C=C(C)C1(O)OC(=O)C=C1OC (centres undefined) [PENICILLIC ACID] | Not Active

tested on: not listed separately; test: DRUGMATRIX: GABAA, Muscimol, Central radioligand binding (ligand: [3H] Muscimol); type: cell membranes, Rattus norvegicus, Wistar, Brain, Membrane; settings: Not Active = under 50% inhibition at 10 µM

Compound | IC50 | Ki
C[C@]12CC[C@@H]3c4ccc(O)cc4CC[C@H]3[C@@H]1CCC2=O [ESTRONE] | Not Active | Not Active
NC1=NC(=O)C(c2ccccc2)O1 (centres undefined) [PEMOLINE] | Not Active | Not Active
CN(C)c1nc(N(C)C)nc(N(C)C)n1 [ALTRETAMINE] | Not Active | Not Active
CCn1cc(C(=O)O)c(=O)c2cc(F)c(N3CCNCC3)cc21 [NORFLOXACIN] | Not Active | Not Active
CCCN1C[C@H](CSC)C[C@@H]2c3cccc4[nH]cc(c34)C[C@H]21 [PERGOLIDE] | Not Active | Not Active
Clc1cccc(Cl)c1NC1=NCCN1 [CLONIDINE] | Not Active | Not Active
C=C(C)C1(O)OC(=O)C=C1OC (centres undefined) [PENICILLIC ACID] | Not Active | Not Active
